Results reported in patent US5366543A, “Alcohol-soluble dye and ink composition containing the same” (Orient Chemical Industries, Ltd., priority 1992, dated 1994).

Test: Solubility Comparing Test (saturation concentration of dye in alcohol type solvents)
Format: physicochemical
Conditions: for Solubility, Mixed solvent: Phenylene glycol:Benzyl alcohol:oleic acid = 4:1:1; for Solubility, Mixed solvent / Solubility, Ethylene glycol: dye added after heating the solvent to 70-80 C; for Solubility, Ethanol / Solubility, n-Propanol: saturation concentration by spotting on filter paper
Experimental: Solubility of disazo salt-forming dyes (dye 1-5) obtained in Examples 1-5 and dyes a-c into alcohol type organic […] was tested. While stirring each dye with a magnet stirrer, the dye was first added to 100 parts of solvent and it was spotted on the filter paper (Toyo filter paper No. 2) to investigate the saturation concentration. When ethylene glycol or mixed solvent was used for the solvent, dye was added after heating the solvent to 70-80 C.
Phenylene glycol:Benzyl alcohol:oleic acid = 4:1:1
2) Numbers in the Table indicate the solubility (wt %) into the respectiv

## CCC(C)c1ccc(N=Nc2c(S(=O)(=O)O)cc3cc(Nc4ccc5c(O)c(N=Nc6ccc(C(C)CC)cc6)c(S(=O)(=O)O)cc5c4)ccc3c2O)cc1 (centres unmarked) [Dye 1]
Listed as 1
  Solubility, Mixed solvent: 30 wt %
  Solubility, Ethanol: 20 wt %
  Solubility, n-Propanol: 15 wt %
  Solubility, Ethylene glycol: 30 wt %

## CCC(C)c1ccc(N=Nc2c(S(=O)(=O)O)cc3cc(Nc4ccc5c(O)c(N=Nc6ccc(C(C)CC)cc6)c(S(=O)(=O)O)cc5c4)ccc3c2O)cc1 (centres unmarked) [Dye 2]
Listed as 2
  Solubility, Mixed solvent: 40 wt %
  Solubility, Ethanol: 25 wt %
  Solubility, n-Propanol: 20 wt %
  Solubility, Ethylene glycol: 30 wt %

## O=S(=O)(O)c1cc2cc(Nc3ccc4c(O)c(N=Nc5ccccc5)c(S(=O)(=O)O)cc4c3)ccc2c(O)c1N=Nc1ccccc1 [Dye b, reference compound]
Listed as b
  Solubility, Ethanol: 5 wt %

## CCC(C)c1ccc(N=Nc2c(S(=O)(=O)O)cc3cc(Nc4ccc5c(O)c(N=Nc6ccc(C(C)CC)cc6)c(S(=O)(=O)O)cc5c4)ccc3c2O)cc1 (centres unmarked) [Dye 3]
Listed as 3
  Solubility, Mixed solvent: 30 wt %
  Solubility, Ethanol: 20 wt %
  Solubility, n-Propanol: 10 wt %

## COc1cc(N=Nc2ccccc2)c(C)cc1N=Nc1c(S(=O)(=O)O)cc2cc(S(=O)(=O)O)cc(N)c2c1O [Dye c, reference compound]
  Solubility, Mixed solvent: 40 wt %
  Solubility, Ethanol: 10 wt %
  Solubility, Ethylene glycol: 30 wt %
  Solubility, n-Propanol: 10 wt %

## O=S(=O)(O)c1cc2cc(Nc3ccc4c(O)c(N=Nc5ccccc5)c(S(=O)(=O)O)cc4c3)ccc2c(O)c1N=Nc1ccccc1 [Dye a]
  Solubility, Mixed solvent: 30 wt %
  Solubility, Ethylene glycol: 30 wt %
  Solubility, n-Propanol: 5 wt %
Listed as a
  Solubility, Ethanol: 10 wt %
